Reference: ChEMBL document CHEMBL5543084, “Development of cannabidiol derivatives as potent broad-spectrum antibacterial agents with membrane-disruptive mechanism” (Eur J Med Chem, 2024)
In brackets after ≈: the same amount, converted by molar mass.

Key:
Staphylococcus aureus [1] = assay: Antibacterial activity against Staphylococcus aureus ATCC 29213 assessed as inhibition of bacterial growth incubated for 24 hrs by broth dilution method; assay type: functional
Staphylococcus aureus [2] = assay: Antibacterial activity against methicillin-resistant Staphylococcus aureus N315 assessed as inhibition of bacterial growth incubated for 24 hrs by broth dilution method; assay type: functional
Staphylococcus aureus [3] = assay: Antibacterial activity against methicillin-resistant Staphylococcus aureus NCTC 10442 assessed as inhibition of bacterial growth incubated for 24 hrs by broth dilution method; assay type: functional
Escherichia coli = assay: Antibacterial activity against Escherichia coli ATCC 25922 assessed as inhibition of bacterial growth incubated for 24 hrs by broth dilution method; assay type: functional
Acinetobacter baumannii [4] = assay: Antibacterial activity against Acinetobacter baumannii ATCC 17978 assessed as inhibition of bacterial growth incubated for 24 hrs by broth dilution method; assay type: functional
Acinetobacter baumannii [5] = assay: Antibacterial activity against Acinetobacter baumannii R2889 assessed as inhibition of bacterial growth incubated for 24 hrs by broth dilution method; assay type: functional
Klebsiella pneumoniae [6] = assay: Antibacterial activity against Klebsiella pneumoniae ATCC 14581 assessed as inhibition of bacterial growth incubated for 24 hrs by broth dilution method; assay type: functional
Klebsiella pneumoniae [7] = assay: Antibacterial activity against Klebsiella pneumoniae ATCC 10031 assessed as inhibition of bacterial growth incubated for 24 hrs by broth dilution method; assay type: functional
Pseudomonas aeruginosa = assay: Antibacterial activity against Pseudomonas aeruginosa ATCC 9027 assessed as inhibition of bacterial growth incubated for 24 hrs by broth dilution method; assay type: functional
[8] = Hemolytic activity against rabbit blood cells incubated for 1 hr relative to control; assay type: toxicity, cell-based, Oryctolagus cuniculus, Erythrocyte; details: rabbit blood cells (erythrocytes)

Compound | MIC (Staphylococcus aureus [1]) | MIC (Staphylococcus aureus [2]) | MIC (Staphylococcus aureus [3]) | MIC (Escherichia coli) | MIC (Acinetobacter baumannii [4]) | MIC (Acinetobacter baumannii [5]) | MIC (Klebsiella pneumoniae [6]) | MIC (Klebsiella pneumoniae [7]) | MIC (Pseudomonas aeruginosa) | HC50 at 1 h [8]
C=C(C)[C@@H]1CCC(C)=C[C@H]1c1c(OCCCCNC(=N)N)cc(CCCCC)cc1OCCCCNC(=N)N | 0.78 µg/mL (≈ 1.44 µM) | 0.39 µg/mL (≈ 0.721 µM) | 0.78 µg/mL (≈ 1.44 µM) | 0.78 µg/mL (≈ 1.44 µM) | 1.56 µg/mL (≈ 2.88 µM) | 0.78 µg/mL (≈ 1.44 µM) | 0.78 µg/mL (≈ 1.44 µM) | 1.56 µg/mL (≈ 2.88 µM) | 6.25 µg/mL (≈ 11.6 µM) | 98.4 µg/mL
C=C(C)[C@@H]1CCC(C)=C[C@H]1c1c(OCCCCCCN)cc(CCCCC)cc1OCCCCCCN | 1.56 µg/mL (≈ 3.04 µM) | 1.56 µg/mL (≈ 3.04 µM) | 0.78 µg/mL (≈ 1.52 µM) | 3.12 µg/mL (≈ 6.09 µM) | 3.12 µg/mL (≈ 6.09 µM) | 3.12 µg/mL (≈ 6.09 µM) | 0.78 µg/mL (≈ 1.52 µM) | 1.56 µg/mL (≈ 3.04 µM) | > 50 µg/mL | 59.7 µg/mL
C=C(C)[C@@H]1CCC(C)=C[C@H]1c1c(OCCCCCCNC(=N)N)cc(CCCCC)cc1OCCCCCCNC(=N)N | 0.78 µg/mL (≈ 1.31 µM) | 1.56 µg/mL (≈ 2.61 µM) | 1.56 µg/mL (≈ 2.61 µM) | 12.5 µg/mL (≈ 20.9 µM) | 12.5 µg/mL (≈ 20.9 µM) | 12.5 µg/mL (≈ 20.9 µM) | > 50 µg/mL | 25 µg/mL (≈ 41.9 µM) | > 50 µg/mL | 72.6 µg/mL
C=C(C)[C@@H]1CCC(C)=C[C@H]1c1c(OCCCCN)cc(CCCCC)cc1OCCCCN | 3.12 µg/mL (≈ 6.84 µM) | 3.12 µg/mL (≈ 6.84 µM) | 3.12 µg/mL (≈ 6.84 µM) | 3.12 µg/mL (≈ 6.84 µM) | 3.12 µg/mL (≈ 6.84 µM) | 3.12 µg/mL (≈ 6.84 µM) | 12.5 µg/mL (≈ 27.4 µM) | 6.25 µg/mL (≈ 13.7 µM) | 50 µg/mL (≈ 109 µM) | 141 µg/mL
C=C(C)[C@@H]1CCC(C)=C[C@H]1c1c(OCCCCN(C)CCCNC)cc(CCCCC)cc1OCCCCN(C)CCCNC | 1.56 µg/mL (≈ 2.49 µM) | 1.56 µg/mL (≈ 2.49 µM) | 1.56 µg/mL (≈ 2.49 µM) | 3.12 µg/mL (≈ 4.98 µM) | 1.56 µg/mL (≈ 2.49 µM) | 3.12 µg/mL (≈ 4.98 µM) | 3.12 µg/mL (≈ 4.98 µM) | 1.56 µg/mL (≈ 2.49 µM) | 3.12 µg/mL (≈ 4.98 µM) | > 200 µg/mL
C=C(C)[C@@H]1CCC(C)=C[C@H]1c1c(OCCCCI)cc(CCCCC)cc1OCCCCI | > 50 µg/mL | > 50 µg/mL | > 50 µg/mL | > 100 µg/mL | > 50 µg/mL | > 50 µg/mL | > 50 µg/mL | > 50 µg/mL | > 50 µg/mL | > 200 µg/mL
C=C(C)[C@@H]1CCC(C)=C[C@H]1c1c(O)cc(CCCCC)cc1O [CANNABIDIOL] | 3.12 µg/mL (≈ 9.94 µM) | 1.56 µg/mL (≈ 4.96 µM) | 3.12 µg/mL (≈ 9.94 µM) | > 100 µg/mL | > 50 µg/mL | > 50 µg/mL | > 50 µg/mL | > 50 µg/mL | > 50 µg/mL | > 200 µg/mL
C=C(C)[C@@H]1CCC(C)=C[C@H]1c1c(OCCCCN2CCCC2)cc(CCCCC)cc1OCCCCN1CCCC1 | 3.12 µg/mL (≈ 5.53 µM) | 3.12 µg/mL (≈ 5.53 µM) | 3.12 µg/mL (≈ 5.53 µM) | 12.5 µg/mL (≈ 22.1 µM) | 25 µg/mL (≈ 44.3 µM) | 12.5 µg/mL (≈ 22.1 µM) | 25 µg/mL (≈ 44.3 µM) | 12.5 µg/mL (≈ 22.1 µM) | 25 µg/mL (≈ 44.3 µM) | 174 µg/mL
C=C(C)[C@@H]1CCC(C)=C[C@H]1c1c(OCCCCN(CCO)CCO)cc(CCCCC)cc1OCCCCN(CCO)CCO | 25 µg/mL (≈ 39.5 µM) | 25 µg/mL (≈ 39.5 µM) | 25 µg/mL (≈ 39.5 µM) | 100 µg/mL (≈ 158 µM) | > 50 µg/mL | 50 µg/mL (≈ 79 µM) | 50 µg/mL (≈ 79 µM) | 25 µg/mL (≈ 39.5 µM) | > 50 µg/mL | > 200 µg/mL
C=C(C)[C@@H]1CCC(C)=C[C@H]1c1c(OCCCN)cc(CCCCC)cc1OCCCN | 6.25 µg/mL (≈ 14.6 µM) | 6.25 µg/mL (≈ 14.6 µM) | 6.25 µg/mL (≈ 14.6 µM) | 6.25 µg/mL (≈ 14.6 µM) | 6.25 µg/mL (≈ 14.6 µM) | 12.5 µg/mL (≈ 29.2 µM) | 12.5 µg/mL (≈ 29.2 µM) | 6.25 µg/mL (≈ 14.6 µM) | > 50 µg/mL | > 200 µg/mL
CN[C@H](CC(C)C)C(=O)N[C@H]1C(=O)N[C@@H](CC(N)=O)C(=O)N[C@H]2C(=O)N[C@H]3C(=O)N[C@H](C(=O)N[C@H](C(=O)O)c4cc(O)cc(O)c4-c4cc3ccc4O)[C@H](O)c3ccc(c(Cl)c3)Oc3cc2cc(c3O[C@@H]2O[C@H](CO)[C@@H](O)[C@H](O)[C@H]2O[C@H]2C[C@](C)(N)[C@H](O)[C@H](C)O2)Oc2ccc(cc2Cl)[C@H]1O [VANCOMYCIN] | 0.78 µg/mL (≈ 0.538 µM) | 1.56 µg/mL (≈ 1.08 µM) | 1.56 µg/mL (≈ 1.08 µM) | > 50 µg/mL | – | – | – | – | – | > 200 µg/mL
